# PubChem BioAssay AID1963977 (Molecular Pharmacology Branch, DTP, NCI, 2024)
# Test system: 624824-186-R-J3-PDC multicell spheroids, viability
# Test: Anticancer human tumor 624824-186-R-J3-PDC patient-derived colon adenocarcinoma cell line growth inhibition [PI3K]
# Details: for IC50: curve of first compound; for viability, T/C: stronger effect = lower value
# From the text: Combinatorial screen of targeted agents with the PI3K inhibitors inavolisib, alpelisib, duvelisib, and copanlisib in multi-cell type tumor spheroids
# A high-throughput screen of multi-cell type tumor spheroids was designed to identify active combinations of targeted small molecules and PI3K pathway inhibitors. Complex spheroids include a stromal component modeled by human endothelial cells (HUVEC) and fibroblasts modeled by human mesenchymal stem cells (MSCs). The concentration ranges selected for each drug and investigational agent were based upon clinically achievable concentrations if the clinical Cmax of the agent was known.
# Compounds. The drugs and investigational agents: inavolisib (NSC800729), alpelisib (NSC765974), duvelisib (NSC772469), copanlisib (NSC816437), ipatasertib (NSC767898), afuresertib (NSC778305), talazoparib (NSC767125), sapanisertib (NSC764658), selumetinib (NSC741078), tovorafenib (DAY101, NSC766906), vemurafenib (NSC761431), ravoxertinib (NSC781343), sotorasib (NSC818433), MRTX1133 (NSC 836407), abemaciclib (NSC 768073), palbociclib (NSC758247), venetoclax (NSC 766270), SY5609 (NSC837396), enzalutamide (NSC755605), and darolutamide (NSC825331), were obtained from the National Cancer Institute (NCI) Developmental Therapeutics Program Chemical Repository. The FDA-approved anticancer drug set is available from the NCI Developmental Therapeutics Program. […] The stock solutions were prepared in dimethyl sulfoxide (DMSO, Sigma-Aldrich, St. Louis, MO, cat. D2650) at 800-fold the tested concentration and stored at -70 degrees C prior to their use. All drugs and investigational agents were tested over a range starting from a high concentration at or near the clinical Cmax and decreasing in half-log increments. If the clinical Cmax for an agent had not been determined, the highest concentration tested was 10 microM.
# Cell Culture. All cells were maintained in an incubator at 37 degrees C and 5% CO2 with 95% humidity. The PDC lines were cultured according to standard operating procedures established by the NCI PDMR (https://pdmr.cancer.gov/sops/default.htm). All PDCs were thawed and cultured in Matrigel-coated flasks prepared with a working solution of 1X Ham's F-12 nutrient mix, without supplementation (Invitrogen, Waltham, MA, cat. 11765054), 100 U/mL penicillin-streptomycin (Invitrogen, cat. 15140122), and 2.5% Matrigel (Corning Inc., Corning, NY, cat. 354248) for the first three passages. The 354836-022-R-J1-PDC, 475296-252-R-J1-PDC, and 997726-040-R-J2-PDC lines were cultured in 6A media, which includes advanced DMEM/F-12 (Thermo Fisher Scientific, cat. 12634028), 10 mM HEPES (Thermo Fisher Scientific, cat. 15630080), 1X GlutaMAX supplement (Thermo Fisher Scientific, cat. 35050061), 0.1 mg/mL primocin (InvivoGen, San Diego, CA, cat. ant-pm-2), 10% defined fetal bovine serum, heat inactivated (HyClone Laboratories Inc., Logan, UT, cat. SH30070.03HI), 50% L-WRN conditioned media (ATCC, cat. CRL-3276), 1.25 mM N-Acetyl-L-cysteine (Sigma-Aldrich, cat. A9165), 10 mM nicotinamide (Sigma-Aldrich, cat. N0636), 1X B-27 supplement (Thermo Fisher Scientific, cat. 17504044), 1X N-2 supplement (Thermo Fisher Scientific, cat. 17502048), and 10 microM Y-27632 dihydrochloride (Tocris Bioscience, Bristol, United Kingdom, cat. 1254). The 624824-186-R-J2-PDC line was cultured in 6C/Colon 1B media, which includes all 6A media components plus 50 ng/mL human EGF recombinant protein (Thermo Fisher Scientific, cat. PHG0311). […]
# 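Also: spheroids exposed to agents for seven days before luminescence read.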
# 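For viability, T/C in this document: luminescent signal used as a stand-in for spheroid viability; percent viability relative to DMSO vehicle control wells taken as 100%.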
compound,measurement,setting,value
CCN1CCN(Cc2ccc(Nc3ncc(F)c(-c4cc(F)c5nc(C)n(C(C)C)c5c4)n3)nc2)CC1 + CC(Nc1ccc2c(c1)OCCn1cc(N3C(=O)OCC3C(F)F)nc1-2)C(N)=O,IC50,second compound 0.00316 µM,> 1000 nM
same,IC50,second compound 0.01 µM,> 1000 nM
same,IC50,second compound 0.0316 µM,> 1000 nM
same,IC50,second compound 0.1 µM,> 1000 nM
same,IC50,second compound 0.316 µM,> 1000 nM
same,IC50,second compound 1 µM,287 nM
same,"viability, T/C","second compound 0.00316 µM, first compound 0.00316 µM",99.2%
same,"viability, T/C","second compound 0.00316 µM, first compound 0.01 µM",96.2%
same,"viability, T/C","second compound 0.00316 µM, first compound 0.0316 µM",106%
same,"viability, T/C","second compound 0.00316 µM, first compound 0.1 µM",101%
same,"viability, T/C","second compound 0.00316 µM, first compound 0.316 µM",93.2%
same,"viability, T/C","second compound 0.00316 µM, first compound 1 µM",97.1%
same,"viability, T/C","second compound 0.01 µM, first compound 0.00316 µM",101%
same,"viability, T/C","second compound 0.01 µM, first compound 0.01 µM",89%
same,"viability, T/C","second compound 0.01 µM, first compound 0.0316 µM",114%
same,"viability, T/C","second compound 0.01 µM, first compound 0.1 µM",102%
same,"viability, T/C","second compound 0.01 µM, first compound 0.316 µM",104%
same,"viability, T/C","second compound 0.01 µM, first compound 1 µM",90%
same,"viability, T/C","second compound 0.0316 µM, first compound 0.00316 µM",101%
same,"viability, T/C","second compound 0.0316 µM, first compound 0.01 µM",97.8%
same,"viability, T/C","second compound 0.0316 µM, first compound 0.0316 µM",102%
same,"viability, T/C","second compound 0.0316 µM, first compound 0.1 µM",105%
same,"viability, T/C","second compound 0.0316 µM, first compound 0.316 µM",89.6%
same,"viability, T/C","second compound 0.0316 µM, first compound 1 µM",76.3%
same,"viability, T/C","second compound 0.1 µM, first compound 0.00316 µM",94.6%
same,"viability, T/C","second compound 0.1 µM, first compound 0.01 µM",96%
same,"viability, T/C","second compound 0.1 µM, first compound 0.0316 µM",103%
same,"viability, T/C","second compound 0.1 µM, first compound 0.1 µM",105%
same,"viability, T/C","second compound 0.1 µM, first compound 0.316 µM",75.2%
same,"viability, T/C","second compound 0.1 µM, first compound 1 µM",58.3%
same,"viability, T/C","second compound 0.316 µM, first compound 0.00316 µM",94.5%
same,"viability, T/C","second compound 0.316 µM, first compound 0.01 µM",92.9%
same,"viability, T/C","second compound 0.316 µM, first compound 0.0316 µM",105%
same,"viability, T/C","second compound 0.316 µM, first compound 0.1 µM",77.2%
same,"viability, T/C","second compound 0.316 µM, first compound 0.316 µM",54.6%
same,"viability, T/C","second compound 0.316 µM, first compound 1 µM",49%
same,"viability, T/C","second compound 1 µM, first compound 0.00316 µM",95.6%
same,"viability, T/C","second compound 1 µM, first compound 0.01 µM",87.6%
same,"viability, T/C","second compound 1 µM, first compound 0.0316 µM",81.1%
same,"viability, T/C","second compound 1 µM, first compound 0.1 µM",56.5%
same,"viability, T/C","second compound 1 µM, first compound 0.316 µM",45.4%
same,"viability, T/C","second compound 1 µM, first compound 1 µM",52.5%
